For test [1], the system named is Schizosaccharomyces pombe. Kind of test: Filter disc assay on a lawn of S. pombe. Particulars: for bioactivity against S. pombe (haloes/zones of inhibition), relative: zinc complexed versus zinc-free form, tested in parallel. The format is cell-based. The method, then:
The silica powder with the S149 compound adsorbed onto it was divided into two equal portions of ˜7.5 g and each portion was used in normal phase “flash” chromatography using a Biotage™ Isolera™ machine and a Biotage™ KP-Sil 50 g column. A chloroform-methanol gradient was used to elute the bound material from the silica in which the percentage of methanol went from 0%-100%. No formic acid was added to the solvents as this degrades the bioactive compound. The eluate from the column was fractionated and the presence of the bioactive compound (S149) determined using the “Filter disc assay” method as described in the “Materials and Methods” of Lewis et al., 2017. The active fractions eluted from the two normal phase chromatography columns were pooled, and after removal of the solvent using a GeneVac™ Series U system equipped with a GeneVac™ VC3000TA condenser unit, the dried material was resuspended in 5 ml of methanol which was loaded onto a size exclusion column. The column was run at a flow rate of 1 ml/min with 1,200 ml of methanol and the eluate fractionated. The bioactive fractions, as determined using the “Filter disc assay” method as described in the “Materials and Methods” of Lewis et al., 2017, were pooled to give ˜15 ml of material which was diluted with 60 ml of water to give 75 ml of a 20% methanol solution. This was used in reverse phase chromatography using a Biotage™ Isolera™ chromatography machine in which the bioactive material was loaded by injection onto a C18 SNAP Ultra 12 g Biotage™ column and eluted using an acetonitrile-water gradient where the percentage of acetonitrile was increased from 20%-100%.
An example of the u.v. absorbance pattern (λ=254 nm) is shown in FIG. 1 and indicates the presence of four peaks labelled 0-3. An integrated fraction collector was used to peak-pick material and collect column eluate corresponding to the peaks which were then bioassayed using the “Filter disc assay” method as described in the “Materials and Methods” of Lewis el al., 2017.

The target in test [2] is forkhead transcription factor, Foxo3a (Homo sapiens, UniProt O43524). The conditions noted are these: published by Kawahara et al., 2015; cited from earlier work.
Sequence of forkhead transcription factor, Foxo3a (O43524 whole entry): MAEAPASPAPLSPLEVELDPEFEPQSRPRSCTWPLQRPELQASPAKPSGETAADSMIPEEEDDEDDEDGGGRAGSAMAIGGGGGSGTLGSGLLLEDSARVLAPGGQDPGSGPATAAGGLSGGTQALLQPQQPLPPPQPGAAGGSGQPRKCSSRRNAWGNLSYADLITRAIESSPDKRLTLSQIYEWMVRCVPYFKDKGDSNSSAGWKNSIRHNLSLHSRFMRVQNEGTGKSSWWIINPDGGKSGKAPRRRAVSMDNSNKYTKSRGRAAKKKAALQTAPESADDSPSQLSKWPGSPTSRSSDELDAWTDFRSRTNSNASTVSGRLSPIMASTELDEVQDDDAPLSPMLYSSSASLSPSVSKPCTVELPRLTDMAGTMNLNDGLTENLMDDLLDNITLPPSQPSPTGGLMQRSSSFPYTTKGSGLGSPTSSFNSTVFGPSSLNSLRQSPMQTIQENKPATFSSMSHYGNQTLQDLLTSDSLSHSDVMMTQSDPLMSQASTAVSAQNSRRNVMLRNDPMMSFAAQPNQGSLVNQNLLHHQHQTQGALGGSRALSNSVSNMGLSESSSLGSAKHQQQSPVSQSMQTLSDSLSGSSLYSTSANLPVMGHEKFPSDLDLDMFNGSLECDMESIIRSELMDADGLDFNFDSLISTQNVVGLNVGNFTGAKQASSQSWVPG

`CC(=O)O[C@@H]([C@H](CCCN(O)N=O)NC(=O)[C@H]1N=C([C@H](C)N(C)C)O[C@@H]1C)C(C)(C)C(=O)O[C@H](C(=O)C1=C(O)[C@H](C)N(C)C1=O)C(C)C` [JBIR-141]: the “time for haloes in the S. pombe lawn around impregnated discs to develop” value in test [1] (filter discs impregnated with HPLC peak material) was roughly 48 h. For the same compound, the “bioactivity against S. pombe (haloes/zones of inhibition), relative” value in test [1] is recorded as “not as bioactive as the zinc complexed form”; in test [1] (listed as JBIR 141), “not as bioactive as the zinc complexed form”; in test [1] (listed as Peak 0), “lower than the bioactivity of the material from the other peaks”. Also, in test [2], the “inhibition of the transcriptional activity of Foxo3a” value was “possess the ability to inhibit the transcriptional activity”.
Turning to `CC(=O)O[C@@H]([C@H](C[C@@H](O)CN(O)N=O)NC(=O)[C@H]1N=C([C@H](C)N(C)C)O[C@@H]1C)C(C)(C)C(=O)O[C@H](C(=O)C1=C(O)[C@H](C)N(C)C1=O)C(C)C` [JBIR-142], in test [2], the “inhibition of the transcriptional activity of Foxo3a” value is “possess the ability to inhibit the transcriptional activity”.

The values are drawn from patent US20230181745A1, “ZINC COMPLEXES AND THEIR USES” (Demuris Limited, priority 2020, published 2023).
